Results published in ChEMBL document CHEMBL5257126, “Moderately lipophilic 2-(Het)aryl-6-dithioacetals, 2-phenyl-1,4-benzodioxane-6-dithioacetals and 2-phenylbenzofuran-5-dithioacetals: Synthesis and primary evaluation as potential antidiabetic AMPK-activators” (Bioorg Med Chem, 2023).

What was measured:
[1] = test system: L6; assay: Induction of glucose uptake in rat L6 cells assessed as fold increase by measuring 2-NBDG uptake at 2.5 uM preincubated in high glucose medium for 48 hrs followed by compound addition and measured after 24 hrs; assay type: functional
[2] = test system: L6; assay: Induction of glucose uptake in rat L6 cells assessed as fold increase by measuring 2-NBDG uptake at 0.25 uM preincubated in high glucose medium for 48 hrs followed by compound addition and measured after 24 hrs; assay type: functional
[3] = test system: L6; assay: Induction of glucose uptake in rat L6 cells assessed as fold increase by measuring 2-NBDG uptake at 25 uM preincubated in high glucose medium for 48 hrs followed by compound addition and measured after 24 hrs; assay type: functional
[4] = target: T1, Serine/threonine-protein kinase STK11 (Rattus norvegicus) (UniProt D4AE59); assay: Activation of LKB1 in rat L6 cells assessed as fold increase in phosphorylation at Ser428 at 25 uM incubated for 24 hrs by Western blot analysis; assay type: cell-based; settings: filed as activator
T1 sequence (whole entry): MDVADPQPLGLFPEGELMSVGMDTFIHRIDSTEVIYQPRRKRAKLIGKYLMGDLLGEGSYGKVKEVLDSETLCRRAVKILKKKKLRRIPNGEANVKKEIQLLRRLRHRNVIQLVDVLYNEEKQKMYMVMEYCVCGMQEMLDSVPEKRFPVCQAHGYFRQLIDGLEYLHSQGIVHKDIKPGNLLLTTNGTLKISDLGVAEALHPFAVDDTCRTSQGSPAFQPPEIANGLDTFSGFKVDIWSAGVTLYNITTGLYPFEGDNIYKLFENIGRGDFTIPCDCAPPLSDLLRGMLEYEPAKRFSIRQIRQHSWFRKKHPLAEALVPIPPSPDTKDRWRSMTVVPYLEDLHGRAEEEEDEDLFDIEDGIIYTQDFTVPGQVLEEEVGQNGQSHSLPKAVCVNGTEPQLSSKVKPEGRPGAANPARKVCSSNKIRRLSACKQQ

[5] = target: T1, Serine/threonine-protein kinase STK11 (Rattus norvegicus); assay: Activation of LKB1 in rat L6 cells assessed as fold increase in phosphorylation at Ser428 at 10 uM incubated for 24 hrs by Western blot analysis; assay type: cell-based

Structure (SMILES)	fold change (FC) [1]	fold change (FC) [2]	fold change (FC) [3]	Activity [4] [%]	Activity [5] [%]
c1ccc(-c2cc3cc(C4SCCCS4)ccc3o2)cc1	1	1	1.2		
c1ccc(-c2cc3cc(C4SCCCCS4)ccc3o2)cc1	1	1	1.1		
CC(C)(C)OC(=O)NCCSC(SCCNC(=O)OC(C)(C)C)c1ccc2c(c1)CCC(c1ccccc1)O2 (centres undefined)	1	1	1		
OCCOCCSC(SCCOCCO)c1ccc2c(c1)CCC(c1ccccc1)O2 (centres undefined)	1.1	1	1.1		
c1ccc(C2CCc3cc(C4SCCCCS4)ccc3O2)cc1 (centres undefined)				80	30
O[C@H]1CS[C@@H](c2ccc3c(c2)CCC(c2ccccc2)O3)SC1 (some centres undefined)	1	1.1	1		
OCCSC(SCCO)c1ccc2c(c1)CCC(c1ccccc1)O2 (centres undefined)	1	1	1.5		
c1ccc(C2CCc3cc(C4NCCS4)ccc3O2)cc1 (centres undefined)	0.9	1	1.2		
OCCSC(SCCO)c1ccc2c(c1)OCC(c1ccccc1)O2 (centres undefined)	1.2	1.1	1.7		
c1coc(C2CCc3cc(C4SCCCS4)ccc3O2)c1 (centres undefined)	1	1	1.2		
COc1cccc(C2CCc3cc(C4SCCCS4)ccc3O2)c1 (centres undefined)	1	1	1.5		
c1ccc(C2COc3cc(C4SCCCS4)ccc3O2)cc1 (centres undefined)	1	1	1.2		
O=C(NCCSC(SCCNC(=O)OCc1ccccc1)c1ccc2c(c1)CCC(c1ccccc1)O2)OCc1ccccc1 (centres undefined)	1.1	0.9	1.1		
COc1ccc(C2CCc3cc(C4SCCCCS4)ccc3O2)cc1 (centres undefined)	1.9	1.4	2.2		
c1ccc(C2COc3cc(C4SCCCCS4)ccc3O2)cc1 (centres undefined)	1	1	1.1		
c1cncc(C2CCc3cc(C4SCCCS4)ccc3O2)c1 (centres undefined)	1	1	1.3		
O[C@H]1CS[C@H](c2ccc3c(c2)CCC(c2ccccc2)O3)SC1 (some centres undefined)	0.9	1.1	1		
O=C(O)CCSC(SCCC(=O)O)c1ccc2c(c1)CCC(c1ccccc1)O2 (centres undefined)	1.1	0.9	1.2		
OCCSC(SCCO)c1ccc2c(c1)CCC(c1ccco1)O2 (centres undefined)	1	1.1	1.5		
OCCSC(SCCO)c1ccc2c(c1)CCC(c1cccnc1)O2 (centres undefined)	1.7	1.4	1.9		
